Data taken from the supplement of paper PMC10307832.

Tests used:
Assay in all cases: relative viability (nuclei count vs DMSO), 5 days (fraction); higher = more cells survive
A-427 = test system: A-427
Summary of the method: (§1)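 For relative viability, nuclei counts in treated wells were divided by those in vehicle wells. Lung cancer cell lines had been pin-tool dosed in 1536-well plates the day after seeding and cultured for 5 days, then fixed and stained in one step (final 0.05% Triton X-100, 1% formaldehyde, 1 ug/ml Hoechst) and imaged at 4×. Doses were one drug alone or a fixed anchor-drug dose plus five library-drug doses (not always all listed) in √10 steps, and values are duplicate-plate medians.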

CAL-12T = test system: CAL-12T
Summary of the method: as §1

H3255 = test system: H3255
Summary of the method: as §1

LC-2-ad = test system: LC-2-ad
Summary of the method: as §1

LCLC-97TM1 = test system: LCLC-97TM1
Summary of the method: as §1

LK-2 = test system: LK-2
Summary of the method: as §1

NCI-H1355 = test system: NCI-H1355
Summary of the method: as §1

NCI-H1395 = test system: NCI-H1395
Summary of the method: as §1

NCI-H1651 = test system: NCI-H1651
Summary of the method: as §1

NCI-H1666 = test system: NCI-H1666
Summary of the method: as §1

NCI-H1792 = test system: NCI-H1792
Summary of the method: as §1

NCI-H1915 = test system: NCI-H1915
Summary of the method: as §1

NCI-H2085 = test system: NCI-H2085
Summary of the method: as §1

NCI-H2087 = test system: NCI-H2087
Summary of the method: as §1

NCI-H2228 = test system: NCI-H2228
Summary of the method: as §1

NCI-H322M = test system: NCI-H322M
Summary of the method: as §1

NCI-H838 = test system: NCI-H838
Summary of the method: as §1

PC-3 [JPC-3] = test system: PC-3 [JPC-3]
Summary of the method: as §1

RERF-LC-KJ = test system: RERF-LC-KJ
Summary of the method: as §1

SK-MES-1 = test system: SK-MES-1
Summary of the method: as §1

UMC-11 = test system: UMC-11
Summary of the method: as §1

ABC-1 = test system: ABC-1
Summary of the method: as §1

NCI-H358 = test system: NCI-H358
Summary of the method: as §1

CCCCCCCCCCCC1=C(O)C(=O)C=C(O)C1=O [Embelin] + CC1(C)CCC(c2ccc(Cl)cc2)=C(CN2CCN(c3ccc(C(=O)NS(=O)(=O)c4ccc(N[C@H](CCN5CCOCC5)CSc5ccccc5)c(S(=O)(=O)C(F)(F)F)c4)cc3)CC2)C1 [Navitoclax] (partner 0.5 µM)
relative viability (A-427; first compound 0.08 µM): 0.975 | relative viability (A-427; first compound 0.8 µM): 0.929 | relative viability (A-427; first compound 2.53 µM): 0.939 | relative viability (A-427; first compound 8 µM): 1 | relative viability (CAL-12T; first compound 0.08 µM): 1.12 | relative viability (CAL-12T; first compound 0.8 µM): 1.41 | relative viability (CAL-12T; first compound 2.53 µM): 1.23 | relative viability (CAL-12T; first compound 8 µM): 1.24 | relative viability (H3255; first compound 0.08 µM): 0.516 | relative viability (H3255; first compound 0.8 µM): 0.674 | relative viability (H3255; first compound 2.53 µM): 0.551 | relative viability (H3255; first compound 8 µM): 0.599 | relative viability (LC-2-ad; first compound 0.08 µM): 0.406 | relative viability (LC-2-ad; first compound 0.8 µM): 0.625 | relative viability (LC-2-ad; first compound 2.53 µM): 0.451 | relative viability (LC-2-ad; first compound 8 µM): 0.51 | relative viability (LCLC-97TM1; first compound 0.8 µM): 0.46 | relative viability (LCLC-97TM1; first compound 2.53 µM): 0.499 | relative viability (LCLC-97TM1; first compound 8 µM): 0.399 | relative viability (LK-2; first compound 0.08 µM): 0.904 | relative viability (LK-2; first compound 0.8 µM): 1.2 | relative viability (LK-2; first compound 2.53 µM): 1.26 | relative viability (LK-2; first compound 8 µM): 0.809 | relative viability (NCI-H1355; first compound 0.08 µM): 1.04 | relative viability (NCI-H1355; first compound 0.8 µM): 1.05 | relative viability (NCI-H1355; first compound 2.53 µM): 1.06 | relative viability (NCI-H1355; first compound 8 µM): 0.884 | relative viability (NCI-H1395; first compound 0.08 µM): 1.18 | relative viability (NCI-H1395; first compound 0.8 µM): 1.42 | relative viability (NCI-H1395; first compound 2.53 µM): 1.18 | relative viability (NCI-H1395; first compound 8 µM): 0.982 | relative viability (NCI-H1651; first compound 0.08 µM): 0.926 | relative viability (NCI-H1651; first compound 0.8 µM): 1.19 | relative viability (NCI-H1651; first compound 2.53 µM): 1.02 | relative viability (NCI-H1651; first compound 8 µM): 1.09 | relative viability (NCI-H1666; first compound 0.08 µM): 1.21 | relative viability (NCI-H1666; first compound 0.8 µM): 1.22 | relative viability (NCI-H1666; first compound 2.53 µM): 0.995 | relative viability (NCI-H1666; first compound 8 µM): 0.999 | relative viability (NCI-H1792; first compound 0.08 µM): 0.593 | relative viability (NCI-H1792; first compound 0.8 µM): 0.649 | relative viability (NCI-H1792; first compound 2.53 µM): 0.892 | relative viability (NCI-H1792; first compound 8 µM): 0.669 | relative viability (NCI-H1915; first compound 0.08 µM): 0.822 | relative viability (NCI-H1915; first compound 0.8 µM): 0.784 | relative viability (NCI-H1915; first compound 2.53 µM): 0.793 | relative viability (NCI-H1915; first compound 8 µM): 0.796 | relative viability (NCI-H2085; first compound 0.08 µM): 1.09 | relative viability (NCI-H2085; first compound 0.8 µM): 1.31 | relative viability (NCI-H2085; first compound 2.53 µM): 1.2 | relative viability (NCI-H2085; first compound 8 µM): 1 | relative viability (NCI-H2087; first compound 0.08 µM): 0.892 | relative viability (NCI-H2087; first compound 0.8 µM): 1.17 | relative viability (NCI-H2087; first compound 2.53 µM): 0.93 | relative viability (NCI-H2087; first compound 8 µM): 0.989 | relative viability (NCI-H2228; first compound 0.08 µM): 0.793 | relative viability (NCI-H2228; first compound 0.8 µM): 0.955 | relative viability (NCI-H2228; first compound 2.53 µM): 1.28 | relative viability (NCI-H2228; first compound 8 µM): 0.604 | relative viability (NCI-H322M; first compound 0.08 µM): 1.1 | relative viability (NCI-H322M; first compound 0.8 µM): 1.37 | relative viability (NCI-H322M; first compound 2.53 µM): 1.48 | relative viability (NCI-H322M; first compound 8 µM): 1.12 | relative viability (NCI-H838; first compound 0.08 µM): 1.19 | relative viability (NCI-H838; first compound 0.8 µM): 1.25 | relative viability (NCI-H838; first compound 2.53 µM): 1.2 | relative viability (NCI-H838; first compound 8 µM): 1.18 | relative viability (PC-3 [JPC-3]; first compound 0.08 µM): 0.82 | relative viability (PC-3 [JPC-3]; first compound 0.8 µM): 0.752 | relative viability (PC-3 [JPC-3]; first compound 2.53 µM): 0.941 | relative viability (PC-3 [JPC-3]; first compound 8 µM): 0.72 | relative viability (RERF-LC-KJ; first compound 0.08 µM): 0.963 | relative viability (RERF-LC-KJ; first compound 0.8 µM): 1.14 | relative viability (RERF-LC-KJ; first compound 2.53 µM): 0.808 | relative viability (RERF-LC-KJ; first compound 8 µM): 0.821 | relative viability (SK-MES-1; first compound 0.08 µM): 1.23 | relative viability (SK-MES-1; first compound 0.8 µM): 1.32 | relative viability (SK-MES-1; first compound 2.53 µM): 1.25 | relative viability (SK-MES-1; first compound 8 µM): 1.43 | relative viability (UMC-11; first compound 0.08 µM): 0.328 | relative viability (UMC-11; first compound 0.8 µM): 0.32 | relative viability (UMC-11; first compound 2.53 µM): 0.319 | relative viability (UMC-11; first compound 8 µM): 0.289

CCCCCCCCCCCC1=C(O)C(=O)C=C(O)C1=O [Embelin] + NC(=O)Nc1cc(-c2cccc(F)c2)sc1C(=O)N[C@H]1CCCNC1 [AZD7762] (partner 0.2 µM)
relative viability (A-427; first compound 0.08 µM): 0.75 | relative viability (A-427; first compound 0.8 µM): 0.877 | relative viability (A-427; first compound 2.53 µM): 0.737 | relative viability (A-427; first compound 8 µM): 0.452 | relative viability (ABC-1; first compound 0.08 µM): 0.701 | relative viability (ABC-1; first compound 0.8 µM): 1.01 | relative viability (ABC-1; first compound 2.53 µM): 0.875 | relative viability (ABC-1; first compound 8 µM): 0.856 | relative viability (CAL-12T; first compound 0.08 µM): 0.641 | relative viability (CAL-12T; first compound 0.8 µM): 0.697 | relative viability (CAL-12T; first compound 2.53 µM): 0.61 | relative viability (CAL-12T; first compound 8 µM): 0.676 | relative viability (H3255; first compound 0.08 µM): 0.826 | relative viability (H3255; first compound 0.8 µM): 0.975 | relative viability (H3255; first compound 2.53 µM): 0.894 | relative viability (H3255; first compound 8 µM): 0.913 | relative viability (LC-2-ad; first compound 0.08 µM): 0.884 | relative viability (LC-2-ad; first compound 0.8 µM): 0.888 | relative viability (LC-2-ad; first compound 2.53 µM): 0.916 | relative viability (LC-2-ad; first compound 8 µM): 0.814 | relative viability (LCLC-97TM1; first compound 0.08 µM): 0.223 | relative viability (LCLC-97TM1; first compound 0.8 µM): 0.248 | relative viability (LCLC-97TM1; first compound 2.53 µM): 0.205 | relative viability (LCLC-97TM1; first compound 8 µM): 0.268 | relative viability (LK-2; first compound 0.08 µM): 0.497 | relative viability (LK-2; first compound 0.8 µM): 0.543 | relative viability (LK-2; first compound 2.53 µM): 0.497 | relative viability (LK-2; first compound 8 µM): 0.351 | relative viability (NCI-H1355; first compound 0.08 µM): 0.821 | relative viability (NCI-H1355; first compound 0.8 µM): 0.802 | relative viability (NCI-H1355; first compound 2.53 µM): 0.836 | relative viability (NCI-H1355; first compound 8 µM): 0.743 | relative viability (NCI-H1395; first compound 0.08 µM): 0.434 | relative viability (NCI-H1395; first compound 0.8 µM): 0.425 | relative viability (NCI-H1395; first compound 2.53 µM): 0.384 | relative viability (NCI-H1395; first compound 8 µM): 0.366 | relative viability (NCI-H1651; first compound 0.08 µM): 0.452 | relative viability (NCI-H1651; first compound 0.8 µM): 0.549 | relative viability (NCI-H1651; first compound 2.53 µM): 0.527 | relative viability (NCI-H1651; first compound 8 µM): 0.46 | relative viability (NCI-H1666; first compound 0.08 µM): 0.871 | relative viability (NCI-H1666; first compound 0.8 µM): 0.885 | relative viability (NCI-H1666; first compound 2.53 µM): 0.782 | relative viability (NCI-H1666; first compound 8 µM): 0.922 | relative viability (NCI-H1792; first compound 0.08 µM): 0.853 | relative viability (NCI-H1792; first compound 0.8 µM): 0.849 | relative viability (NCI-H1792; first compound 2.53 µM): 0.814 | relative viability (NCI-H1792; first compound 8 µM): 0.547 | relative viability (NCI-H1915; first compound 0.08 µM): 0.72 | relative viability (NCI-H1915; first compound 0.8 µM): 0.764 | relative viability (NCI-H1915; first compound 2.53 µM): 0.751 | relative viability (NCI-H1915; first compound 8 µM): 0.614 | relative viability (NCI-H2085; first compound 0.08 µM): 0.956 | relative viability (NCI-H2085; first compound 0.8 µM): 1.09 | relative viability (NCI-H2085; first compound 2.53 µM): 0.93 | relative viability (NCI-H2085; first compound 8 µM): 1.03 | relative viability (NCI-H2087; first compound 0.08 µM): 1.34 | relative viability (NCI-H2087; first compound 0.8 µM): 1.37 | relative viability (NCI-H2087; first compound 2.53 µM): 1.2 | relative viability (NCI-H2087; first compound 8 µM): 1.28 | relative viability (NCI-H322M; first compound 0.08 µM): 0.585 | relative viability (NCI-H322M; first compound 0.8 µM): 0.632 | relative viability (NCI-H322M; first compound 2.53 µM): 0.568 | relative viability (NCI-H322M; first compound 8 µM): 0.472 | relative viability (NCI-H358; first compound 0.08 µM): 0.604 | relative viability (NCI-H358; first compound 0.8 µM): 0.739 | relative viability (NCI-H358; first compound 2.53 µM): 0.517 | relative viability (NCI-H358; first compound 8 µM): 0.491 | relative viability (NCI-H838; first compound 0.08 µM): 0.946 | relative viability (NCI-H838; first compound 0.8 µM): 1.05 | relative viability (NCI-H838; first compound 2.53 µM): 0.912 | relative viability (NCI-H838; first compound 8 µM): 0.992 | relative viability (PC-3 [JPC-3]; first compound 0.08 µM): 0.765 | relative viability (PC-3 [JPC-3]; first compound 0.8 µM): 0.888 | relative viability (PC-3 [JPC-3]; first compound 2.53 µM): 0.797 | relative viability (PC-3 [JPC-3]; first compound 8 µM): 0.724 | relative viability (RERF-LC-KJ; first compound 0.08 µM): 1.02 | relative viability (RERF-LC-KJ; first compound 0.8 µM): 1.15 | relative viability (RERF-LC-KJ; first compound 2.53 µM): 1.13 | relative viability (RERF-LC-KJ; first compound 8 µM): 1
